Measured values from publication PMC7265341, “Quantifying CDK inhibitor selectivity in live cells” (Nature Communications, 2020).
Where two headings read alike, the source gives them in different places.

Tests used:
[1] = target: CDK6/Cyclin D1 (Homo sapiens, UniProt Q00534); assay: NanoBRET live-cell target engagement, NanoLuc-CDK6/Cyclin D1 in HEK-293; format: binding; details: CDK6/D1, 10µM
[2] = target: CDK11B/Cyclin L2 (Homo sapiens, UniProt P21127); assay: NanoBRET live-cell target engagement, CDK11B-NanoLuc/Cyclin L2 in HEK-293; format: binding; details: CDK11b/L2, 10µM
Chain of CDK11B/Cyclin L2 (P21127 1-782 isoform P21127-2): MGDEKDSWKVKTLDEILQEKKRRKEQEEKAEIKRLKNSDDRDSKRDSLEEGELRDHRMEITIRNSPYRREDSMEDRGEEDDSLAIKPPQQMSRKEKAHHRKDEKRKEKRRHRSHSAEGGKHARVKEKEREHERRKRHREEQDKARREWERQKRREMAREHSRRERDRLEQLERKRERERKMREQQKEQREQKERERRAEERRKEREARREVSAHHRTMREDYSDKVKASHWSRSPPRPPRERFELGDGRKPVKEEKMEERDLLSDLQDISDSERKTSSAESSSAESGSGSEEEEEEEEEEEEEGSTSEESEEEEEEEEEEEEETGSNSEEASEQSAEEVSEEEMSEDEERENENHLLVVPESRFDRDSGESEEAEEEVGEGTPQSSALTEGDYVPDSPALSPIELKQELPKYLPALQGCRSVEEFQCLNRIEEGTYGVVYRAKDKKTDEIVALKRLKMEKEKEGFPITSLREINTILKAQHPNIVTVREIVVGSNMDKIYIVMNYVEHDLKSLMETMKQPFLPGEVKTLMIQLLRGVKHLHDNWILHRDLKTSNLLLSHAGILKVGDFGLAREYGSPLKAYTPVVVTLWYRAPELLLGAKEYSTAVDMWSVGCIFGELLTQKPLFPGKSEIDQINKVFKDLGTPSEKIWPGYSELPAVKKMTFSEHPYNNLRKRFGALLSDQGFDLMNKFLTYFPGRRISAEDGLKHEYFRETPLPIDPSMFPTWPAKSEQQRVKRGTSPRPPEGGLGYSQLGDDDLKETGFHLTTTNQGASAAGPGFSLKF

[3] = target: CDK12/Cyclin K (Homo sapiens, UniProt Q9NYV4); assay: NanoBRET live-cell target engagement, CDK12-NanoLuc/Cyclin K in HEK-293; format: binding; details: CDK12/K, 10µM
[4] = target: CDK4/Cyclin D1 (Homo sapiens, UniProt P11802); assay: NanoBRET live-cell target engagement, NanoLuc-CDK4/Cyclin D1 in HEK-293; format: binding; details: CDK4/D1, 10µM
[5] = target: CDK19/Cyclin C (Homo sapiens, UniProt Q9BWU1); assay: NanoBRET live-cell target engagement, NanoLuc-CDK19/Cyclin C in HEK-293; details: 10µM
[6] = target: T1, CDK11A/Cyclin L2 (Homo sapiens, UniProt Q9UQ88); assay: NanoBRET live-cell target engagement, CDK11A-NanoLuc/Cyclin L2 in HEK-293; format: binding; details: CDK11a/L2, 10µM
T1 sequence (Q9UQ88 1-783): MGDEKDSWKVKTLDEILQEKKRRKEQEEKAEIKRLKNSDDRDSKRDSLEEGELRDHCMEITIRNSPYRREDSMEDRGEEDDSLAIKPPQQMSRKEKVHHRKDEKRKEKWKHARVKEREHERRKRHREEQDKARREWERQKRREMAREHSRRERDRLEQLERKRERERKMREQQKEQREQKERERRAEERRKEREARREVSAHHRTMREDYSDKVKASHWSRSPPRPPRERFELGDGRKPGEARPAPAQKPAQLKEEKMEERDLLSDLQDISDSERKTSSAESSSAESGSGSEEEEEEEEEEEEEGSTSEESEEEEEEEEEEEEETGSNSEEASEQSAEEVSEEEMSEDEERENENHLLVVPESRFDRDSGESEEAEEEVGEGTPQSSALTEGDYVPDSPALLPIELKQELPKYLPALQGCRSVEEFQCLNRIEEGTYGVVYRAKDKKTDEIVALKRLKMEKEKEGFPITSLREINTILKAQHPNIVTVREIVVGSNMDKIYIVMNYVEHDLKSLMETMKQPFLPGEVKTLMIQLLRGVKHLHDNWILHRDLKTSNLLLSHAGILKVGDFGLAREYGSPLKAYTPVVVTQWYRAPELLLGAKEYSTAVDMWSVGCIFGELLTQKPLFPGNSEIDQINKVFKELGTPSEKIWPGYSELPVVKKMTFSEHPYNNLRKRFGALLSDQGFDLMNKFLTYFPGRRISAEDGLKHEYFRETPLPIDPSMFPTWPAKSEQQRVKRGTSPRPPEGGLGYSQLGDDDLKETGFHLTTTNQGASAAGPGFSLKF

[7] = target: CDK9/Cyclin K (Homo sapiens, UniProt P50750); assay: NanoBRET live-cell target engagement, NanoLuc-CDK9/Cyclin K in HEK-293; format: binding; details: CDK9/K, 10µM
Chain of CDK9/Cyclin K (P50750 whole entry): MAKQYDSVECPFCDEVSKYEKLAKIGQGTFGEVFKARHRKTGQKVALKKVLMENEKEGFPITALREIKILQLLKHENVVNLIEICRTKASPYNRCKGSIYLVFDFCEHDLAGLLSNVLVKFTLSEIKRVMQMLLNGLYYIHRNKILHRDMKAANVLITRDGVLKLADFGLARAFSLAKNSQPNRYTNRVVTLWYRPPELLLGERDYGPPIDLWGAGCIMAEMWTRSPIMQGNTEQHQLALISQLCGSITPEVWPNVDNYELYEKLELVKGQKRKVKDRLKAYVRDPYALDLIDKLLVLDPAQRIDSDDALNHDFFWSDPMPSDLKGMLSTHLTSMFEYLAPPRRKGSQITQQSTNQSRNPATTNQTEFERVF
Chain of CDK9/Cyclin K (O75909 whole entry partner): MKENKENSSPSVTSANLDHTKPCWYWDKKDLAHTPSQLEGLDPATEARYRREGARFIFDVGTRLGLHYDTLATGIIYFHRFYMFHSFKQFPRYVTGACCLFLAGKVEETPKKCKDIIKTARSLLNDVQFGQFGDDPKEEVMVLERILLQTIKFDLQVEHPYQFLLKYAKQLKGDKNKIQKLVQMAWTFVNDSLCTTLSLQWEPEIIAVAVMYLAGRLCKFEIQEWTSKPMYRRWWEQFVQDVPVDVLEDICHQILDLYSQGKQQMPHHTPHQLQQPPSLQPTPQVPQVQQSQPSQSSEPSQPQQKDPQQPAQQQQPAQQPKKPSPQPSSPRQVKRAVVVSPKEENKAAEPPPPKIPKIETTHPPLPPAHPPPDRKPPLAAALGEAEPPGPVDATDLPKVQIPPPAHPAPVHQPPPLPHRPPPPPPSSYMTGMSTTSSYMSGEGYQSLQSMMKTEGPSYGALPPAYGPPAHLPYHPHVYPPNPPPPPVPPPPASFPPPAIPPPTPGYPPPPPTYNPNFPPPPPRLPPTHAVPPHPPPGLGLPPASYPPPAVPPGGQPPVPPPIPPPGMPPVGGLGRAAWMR

[8] = target: CDK10/Cyclin L2 (Homo sapiens, UniProt Q15131); assay: NanoBRET live-cell target engagement, CDK10-NanoLuc/Cyclin L2 in HEK-293; details: 10µM
Chain of CDK10/Cyclin L2 (Q15131 whole entry): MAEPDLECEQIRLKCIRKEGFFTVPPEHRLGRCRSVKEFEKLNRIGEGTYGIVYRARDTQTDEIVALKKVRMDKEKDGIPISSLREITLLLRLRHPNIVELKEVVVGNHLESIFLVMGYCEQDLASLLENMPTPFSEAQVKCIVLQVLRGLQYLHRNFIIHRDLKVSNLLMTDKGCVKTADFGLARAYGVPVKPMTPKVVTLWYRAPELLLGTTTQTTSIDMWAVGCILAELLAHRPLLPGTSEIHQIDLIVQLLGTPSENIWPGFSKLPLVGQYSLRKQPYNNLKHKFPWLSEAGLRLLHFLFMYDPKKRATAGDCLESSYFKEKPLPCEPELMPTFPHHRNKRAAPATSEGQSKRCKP

[9] = target: CDK7 (Homo sapiens, UniProt P50613); assay: NanoBRET live-cell target engagement, NanoLuc-CDK7 in HEK-293; format: binding; details: CDK7, 10µM
Chain of CDK7 (P50613 whole entry): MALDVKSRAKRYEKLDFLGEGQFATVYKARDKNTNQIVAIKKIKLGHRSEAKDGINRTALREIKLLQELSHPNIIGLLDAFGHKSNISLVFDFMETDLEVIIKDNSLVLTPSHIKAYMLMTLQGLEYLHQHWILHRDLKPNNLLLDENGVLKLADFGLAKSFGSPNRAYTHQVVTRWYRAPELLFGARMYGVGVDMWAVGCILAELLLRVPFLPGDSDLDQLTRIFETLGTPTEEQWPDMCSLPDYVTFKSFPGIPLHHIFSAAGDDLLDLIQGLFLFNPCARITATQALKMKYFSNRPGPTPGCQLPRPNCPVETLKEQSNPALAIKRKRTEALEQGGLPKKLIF

[10] = target: CDK18/Cyclin Y (Homo sapiens, UniProt Q07002); assay: NanoBRET live-cell target engagement, CDK18-NanoLuc/Cyclin Y in HEK-293; format: binding
Chain of CDK18/Cyclin Y (Q07002 whole entry): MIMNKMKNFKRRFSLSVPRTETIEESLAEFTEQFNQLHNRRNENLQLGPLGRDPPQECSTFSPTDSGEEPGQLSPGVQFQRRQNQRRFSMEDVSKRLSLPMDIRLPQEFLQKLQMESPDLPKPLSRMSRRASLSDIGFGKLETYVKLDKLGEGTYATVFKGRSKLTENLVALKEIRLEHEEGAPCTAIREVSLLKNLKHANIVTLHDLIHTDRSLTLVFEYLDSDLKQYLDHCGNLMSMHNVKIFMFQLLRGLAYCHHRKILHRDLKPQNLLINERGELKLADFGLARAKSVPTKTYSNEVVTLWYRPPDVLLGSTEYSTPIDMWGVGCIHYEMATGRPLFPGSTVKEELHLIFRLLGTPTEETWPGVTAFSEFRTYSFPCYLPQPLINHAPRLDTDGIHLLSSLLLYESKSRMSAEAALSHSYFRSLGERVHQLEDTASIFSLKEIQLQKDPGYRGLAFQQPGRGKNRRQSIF
Chain of CDK18/Cyclin Y (Q8ND76 whole entry partner): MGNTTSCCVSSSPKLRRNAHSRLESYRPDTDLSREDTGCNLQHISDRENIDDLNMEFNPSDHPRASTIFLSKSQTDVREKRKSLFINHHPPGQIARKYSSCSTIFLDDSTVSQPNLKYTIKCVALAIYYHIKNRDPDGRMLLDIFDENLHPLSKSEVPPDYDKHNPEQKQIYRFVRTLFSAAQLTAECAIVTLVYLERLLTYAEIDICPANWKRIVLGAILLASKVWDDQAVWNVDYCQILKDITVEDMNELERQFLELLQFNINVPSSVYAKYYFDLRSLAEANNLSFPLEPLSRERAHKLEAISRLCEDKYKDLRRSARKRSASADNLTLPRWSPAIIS

[11] = target: CDK13/Cyclin K (Homo sapiens, UniProt Q14004); assay: NanoBRET live-cell target engagement, CDK13-NanoLuc/Cyclin K in HEK-293; format: binding; details: CDK13/K, 10µM
[12] = target: CDK16/Cyclin Y (Homo sapiens, UniProt Q00536); assay: NanoBRET live-cell target engagement, CDK16-NanoLuc/Cyclin Y in HEK-293; format: binding; details: CDK16/Y, 10µM
[13] = target: CDK8/Cyclin C (Homo sapiens, UniProt P49336); assay: NanoBRET live-cell target engagement, NanoLuc-CDK8/Cyclin C in HEK-293; format: binding; details: CDK8/C, 10µM
[14] = target: CDK20/Cyclin H (Homo sapiens, UniProt Q8IZL9); assay: NanoBRET live-cell target engagement, NanoLuc-CDK20/Cyclin H in HEK-293; format: binding; details: CDK20/H, 10µM
[15] = target: CDK17/Cyclin Y (Homo sapiens, UniProt Q00537); assay: NanoBRET live-cell target engagement, CDK17-NanoLuc/Cyclin Y in HEK-293; format: binding; details: CDK17/Y, 10µM
Chain of CDK17/Cyclin Y (Q00537 whole entry): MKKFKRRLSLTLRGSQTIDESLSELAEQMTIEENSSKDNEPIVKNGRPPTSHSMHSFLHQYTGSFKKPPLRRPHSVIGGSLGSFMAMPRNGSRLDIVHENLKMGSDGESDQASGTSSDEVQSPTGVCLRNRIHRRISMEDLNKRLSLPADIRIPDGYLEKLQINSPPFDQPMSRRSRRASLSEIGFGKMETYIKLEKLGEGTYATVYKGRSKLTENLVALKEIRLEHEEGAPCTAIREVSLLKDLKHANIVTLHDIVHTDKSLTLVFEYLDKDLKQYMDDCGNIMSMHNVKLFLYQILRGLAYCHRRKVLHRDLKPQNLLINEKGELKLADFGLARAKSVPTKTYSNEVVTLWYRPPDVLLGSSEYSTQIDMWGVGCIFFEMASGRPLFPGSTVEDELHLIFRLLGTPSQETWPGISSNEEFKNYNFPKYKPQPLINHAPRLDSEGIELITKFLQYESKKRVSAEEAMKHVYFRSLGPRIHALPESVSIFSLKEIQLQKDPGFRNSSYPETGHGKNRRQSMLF
Chain of CDK17/Cyclin Y (Q8ND76 whole entry partner): as the sequence (Q8ND76 whole entry partner) above

[16] = target: CDK15/Cyclin Y (Homo sapiens, UniProt Q96Q40); assay: NanoBRET live-cell target engagement, NanoLuc-CDK15/Cyclin Y in HEK-293; format: binding; details: CDK15/Y, 10µM
Chain of CDK15/Cyclin Y (Q96Q40 whole entry): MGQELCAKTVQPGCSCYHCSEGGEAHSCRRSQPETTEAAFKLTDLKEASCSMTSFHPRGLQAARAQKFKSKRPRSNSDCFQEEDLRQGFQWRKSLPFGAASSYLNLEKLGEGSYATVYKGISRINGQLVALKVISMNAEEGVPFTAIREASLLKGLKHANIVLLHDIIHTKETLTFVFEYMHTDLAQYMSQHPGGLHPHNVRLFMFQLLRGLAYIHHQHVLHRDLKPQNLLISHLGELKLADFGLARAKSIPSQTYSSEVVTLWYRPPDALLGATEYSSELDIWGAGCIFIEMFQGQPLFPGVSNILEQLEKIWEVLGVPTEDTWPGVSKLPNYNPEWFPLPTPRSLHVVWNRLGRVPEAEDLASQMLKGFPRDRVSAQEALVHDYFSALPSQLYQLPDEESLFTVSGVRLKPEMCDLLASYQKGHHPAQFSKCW
Chain of CDK15/Cyclin Y (Q8ND76 whole entry partner): as the sequence (Q8ND76 whole entry partner) above

[17] = target: CDK5/CDK5R1 (Homo sapiens, UniProt Q00535); assay: NanoBRET live-cell target engagement, CDK5-NanoLuc/CDK5R1 in HEK-293; format: binding; details: CDK5/CDK5R1, 10µM
[18] = average of replicates, read-out: Inhibition at 10µM (%) Average
[19] = read-out: Inhibition at 10µM (%) Replicate 1
[20] = read-out: Inhibition at 10µM (%) Replicate 2

Chain of CDK6/Cyclin D1 (Q00534 whole entry): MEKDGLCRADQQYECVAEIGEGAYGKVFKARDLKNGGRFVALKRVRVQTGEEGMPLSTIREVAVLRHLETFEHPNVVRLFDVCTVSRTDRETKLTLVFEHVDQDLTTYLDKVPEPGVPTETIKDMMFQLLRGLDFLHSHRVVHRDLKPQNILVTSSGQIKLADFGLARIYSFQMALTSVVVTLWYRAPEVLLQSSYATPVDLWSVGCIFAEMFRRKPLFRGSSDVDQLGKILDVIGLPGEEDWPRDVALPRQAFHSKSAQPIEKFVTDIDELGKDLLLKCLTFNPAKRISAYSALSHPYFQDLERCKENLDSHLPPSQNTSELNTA
Chain of CDK6/Cyclin D1 (P24385 whole entry partner): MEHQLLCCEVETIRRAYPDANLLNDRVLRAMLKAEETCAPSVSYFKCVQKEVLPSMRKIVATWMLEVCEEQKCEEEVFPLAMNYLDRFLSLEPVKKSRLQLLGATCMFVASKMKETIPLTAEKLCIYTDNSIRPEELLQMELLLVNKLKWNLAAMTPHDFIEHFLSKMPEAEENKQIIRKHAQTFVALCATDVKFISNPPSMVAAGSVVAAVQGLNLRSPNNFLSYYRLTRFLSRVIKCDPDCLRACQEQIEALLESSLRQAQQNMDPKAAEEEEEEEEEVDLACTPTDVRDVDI

CCN1CCN(Cc2ccc(Nc3ncc(F)c(-c4cc(F)c5nc(C)n(C(C)C)c5c4)n3)nc2)CC1 [Abemaciclib]
inhibition at 10 µM [1, 18]: 99.4%
inhibition at 10 µM [1, 19]: 99.4%
inhibition at 10 µM [1, 20]: 99.4%
inhibition at 10 µM [2, 18]: 27.7%
inhibition at 10 µM [2, 19]: 27.9%
inhibition at 10 µM [2, 20]: 27.6%
inhibition at 10 µM [3, 18]: 11.6%
inhibition at 10 µM [3, 19]: 10.3%
inhibition at 10 µM [3, 20]: 12.8%
inhibition at 10 µM [4, 18]: 99.6%
inhibition at 10 µM [4, 19]: 100%
inhibition at 10 µM [4, 20]: 99%
inhibition at 10 µM ([5]; read-out: Inhibition at 10µM (%) Average, CDK19/C, average of replicates): 40.7%
inhibition at 10 µM ([5]; read-out: Inhibition at 10µM (%) Replicate 1, CDK19/C): 41.9%
inhibition at 10 µM ([5]; read-out: Inhibition at 10µM (%) Replicate 2, CDK19/C): 39.5%
inhibition at 10 µM [6, 18]: 21.8%
inhibition at 10 µM [6, 19]: 19.9%
inhibition at 10 µM [6, 20]: 23.7%
inhibition at 10 µM [7, 18]: 84.3%
inhibition at 10 µM [7, 19]: 79.2%
inhibition at 10 µM [7, 20]: 89.3%
inhibition at 10 µM ([8]; read-out: Inhibition at 10µM (%) Average, CDK10/L2, average of replicates): 20.9%
inhibition at 10 µM ([8]; read-out: Inhibition at 10µM (%) Replicate 1, CDK10/L2): 21.5%
inhibition at 10 µM ([8]; read-out: Inhibition at 10µM (%) Replicate 2, CDK10/L2): 20.2%
inhibition at 10 µM [9, 18]: 63.4%
inhibition at 10 µM [9, 19]: 65.2%
inhibition at 10 µM [9, 20]: 61.7%
inhibition at 10 µM ([10]; CDK18/Y, average of replicates, read-out: Inhibition at 10µM (%) Average): 74.8%
inhibition at 10 µM ([10]; CDK18/Y, read-out: Inhibition at 10µM (%) Replicate 1): 73.2%
inhibition at 10 µM ([10]; CDK18/Y, read-out: Inhibition at 10µM (%) Replicate 2): 76.3%
IC50 ([10]; CDK18/Y, read-out: IC50 (nM) Replicate 1): 304 nM
IC50 ([10]; IC50 (nM) Average*, CDK18/Y, n=3 average ± SEM, n=2 average to 2 significant figures): 380 ± 60 nM
IC50 ([10]; IC50 (nM) Replicate 2, CDK18/Y): 350 nM
IC50 ([10]; IC50 (nM) Replicate 3, CDK18/Y): 496 nM
inhibition at 10 µM [11, 18]: 7.8%
inhibition at 10 µM [11, 19]: 5.2%
inhibition at 10 µM [11, 20]: 10.4%
inhibition at 10 µM [12, 19]: 86.3%
inhibition at 10 µM [12, 20]: 85.8%
inhibition at 10 µM [13, 18]: 35.7%
inhibition at 10 µM [13, 19]: 27.2%
inhibition at 10 µM [13, 20]: 44.2%
inhibition at 10 µM [14, 19]: 8.8%
inhibition at 10 µM [14, 20]: 28.5%
inhibition at 10 µM [15, 18]: 83%
inhibition at 10 µM [15, 19]: 83%
inhibition at 10 µM [15, 20]: 82.9%
inhibition at 10 µM [16, 18]: 57.4%
inhibition at 10 µM [16, 19]: 57.3%
inhibition at 10 µM [16, 20]: 57.5%
inhibition at 10 µM [17, 18]: 40.9%
inhibition at 10 µM [17, 19]: 38%
inhibition at 10 µM [17, 20]: 43.8%
